# Experimental data published in PubChem BioAssay (NCI).
#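 The concentration for 50% growth inhibition is given as GI50. TGI: concentration producing complete growth inhibition.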
# Columns and labels:
# Assay in all cases: inhibition of tumour cell growth, NCI panel, 384-well format
# [1] = system: HT29 colon
# [2] = system: SK-MEL-28 melanoma
# [3] = system: OVCAR-8 ovarian
# [4] = system: COLO 205 colon
# [5] = system: MCF7 breast
# [6] = system: HCT-15 colon
# [7] = system: M14 melanoma
# [8] = system: HCC-2998 colon
# [9] = system: SF-268 CNS
# [10] = system: NCI-H226 lung
# [11] = system: HOP-92 NSCLC
# [12] = system: MDA-MB-468 breast
# [13] = system: MOLT-4 leukemia
# [14] = system: RXF 393 renal
# [15] = system: CAKI-1 renal
# [16] = system: NCI-H23 lung
# [17] = system: OVCAR-4 ovarian
# [18] = system: SR leukemia
# [19] = system: NCI-H460 NSCLC
# [20] = system: HOP-62 NSCLC
# [21] = system: HS 578T breast
# [22] = system: SF-295 CNS
# [23] = system: UACC-257 melanoma
# [24] = system: SF-539 CNS
# [25] = system: DU-145 prostate
# [26] = system: SK-OV-3 ovarian
# [27] = system: ACHN renal
# [28] = system: NCI-H322M lung
# [29] = system: T-47D breast
# [30] = system: A498 renal
# [31] = system: SN12C renal
# [32] = system: NCI-H522 lung
# [33] = system: NCI/ADR-RES ovarian
# [34] = system: EKVX NSCLC
# [35] = system: RPMI-8226 leukemia
# [36] = system: OVCAR-5 ovarian
# [37] = system: HL-60(TB) leukemia
# [38] = system: OVCAR-3 ovarian
# [39] = system: BT-549 breast
# [40] = system: SNB-19 CNS
# [41] = system: PC-3 prostate
# [42] = system: LOX IMVI melanoma
# [43] = system: U251 glioblastoma
# [44] = system: KM12 colon
# [45] = system: IGROV1 ovarian
# [46] = system: HCT-116 colon
# [47] = system: SK-MEL-5 melanoma
# [48] = system: SNB-75 CNS
# [49] = system: A549 NSCLC
# [50] = system: TK-10 renal
# [51] = system: MDA-MB-435 melanoma
# [52] = system: MALME-3M melanoma
# [53] = system: MDA-MB-231 breast
# [54] = system: UACC-62 melanoma
smiles,measurement,setting,value
N#CCNC(=O)c1ccc(-c2ccnc(Nc3ccc(N4CCOCC4)cc3)n2)cc1,GI50,[1],4.15 µM
same,TGI,[1],24.6 µM
same,GI50,[2],6.23 µM
same,TGI,[2],50.8 µM
same,GI50,[3],3.68 µM
same,TGI,[3],17.6 µM
same,GI50,[4],4.24 µM
same,TGI,[4],14.8 µM
same,GI50,[5],2.24 µM
same,TGI,[5],8.44 µM
same,GI50,[6],3.02 µM
same,TGI,[6],10.7 µM
same,GI50,[7],6.27 µM
same,TGI,[7],51.2 µM
same,GI50,[8],1.93 µM
same,TGI,[8],4.18 µM
same,GI50,[9],2.12 µM
same,TGI,[9],6.6 µM
same,GI50,[10],1.43 µM
same,TGI,[10],3.66 µM
same,GI50,[11],6.94 µM
same,TGI,[11],29 µM
same,GI50,[12],1.37 µM
same,TGI,[12],3.2 µM
same,GI50,[13],2.07 µM
same,TGI,[13],3.99 µM
same,GI50,[14],1.61 µM
same,TGI,[14],3.26 µM
same,GI50,[15],1.23 µM
same,TGI,[15],3.19 µM
same,GI50,[16],2.33 µM
same,TGI,[16],13.6 µM
same,GI50,[17],3.59 µM
same,TGI,[17],11.1 µM
same,GI50,[18],0.468 µM
same,TGI,[18],1.29 µM
same,GI50,[19],1.06 µM
same,TGI,[19],2.5 µM
same,GI50,[20],1.81 µM
same,TGI,[20],4.09 µM
same,GI50,[21],1.32 µM
same,TGI,[21],3.33 µM
same,GI50,[22],4.06 µM
same,TGI,[22],17 µM
same,GI50,[23],3.19 µM
same,TGI,[23],8.82 µM
same,GI50,[24],2.12 µM
same,TGI,[24],10 µM
same,GI50,[25],1.55 µM
same,TGI,[25],3.99 µM
same,GI50,[26],2.73 µM
same,TGI,[26],20.7 µM
same,GI50,[27],1.27 µM
same,TGI,[27],4.14 µM
same,GI50,[28],2.72 µM
same,TGI,[28],10.8 µM
same,GI50,[29],11 µM
same,TGI,[29],39.9 µM
same,GI50,[30],1.14 µM
same,TGI,[30],2.53 µM
same,GI50,[31],0.787 µM
same,TGI,[31],3.94 µM
same,GI50,[32],1.64 µM
same,TGI,[32],6.45 µM
same,GI50,[33],21.4 µM
same,TGI,[33],> 100 µM
same,GI50,[34],2.93 µM
same,TGI,[34],16.8 µM
same,GI50,[35],1.23 µM
same,TGI,[35],2.87 µM
same,GI50,[36],2.63 µM
same,TGI,[36],5.71 µM
same,GI50,[37],1.55 µM
same,TGI,[37],2.89 µM
same,GI50,[38],4.64 µM
same,TGI,[38],19 µM
same,GI50,[39],1.15 µM
same,TGI,[39],2.46 µM
same,GI50,[40],7.84 µM
same,TGI,[40],28.3 µM
same,GI50,[41],2.9 µM
same,TGI,[41],11.8 µM
same,GI50,[42],1.7 µM
same,TGI,[42],4.06 µM
same,GI50,[43],2.28 µM
same,TGI,[43],5.9 µM
same,GI50,[44],3.51 µM
same,TGI,[44],74.1 µM
same,GI50,[45],1.42 µM
same,TGI,[45],3.91 µM
same,GI50,[46],1.51 µM
same,TGI,[46],3.91 µM
same,GI50,[47],2.16 µM
same,TGI,[47],9.34 µM
same,GI50,[48],2.52 µM
same,TGI,[48],15.5 µM
same,GI50,[49],3.19 µM
same,TGI,[49],13.7 µM
same,GI50,[50],1.25 µM
same,TGI,[50],3.27 µM
same,GI50,[51],4.02 µM
same,TGI,[51],21.5 µM
same,GI50,[52],3.05 µM
same,TGI,[52],23.5 µM
same,GI50,[53],1.89 µM
same,TGI,[53],16.8 µM
same,GI50,[54],3.57 µM
same,TGI,[54],15.3 µM
